This is an account of results in patent US4315010A, “Glaucine phosphate salts” (priority 1979, dated 1982).

Structures are written as SMILES. Where a name gives a salt, the structure may show the parent alone. Read-outs that look alike come from different tables or passages of the source.

The format of data set [1] is physicochemical. To be noted: for Percentage Remaining after 3 months at, 40° C. / Percentage Remaining after 3 months at, 50° C. / Percentage Remaining after 3 months at, Ambient / assay after 12 months: syrup; for Percentage Remaining after 3 months at, 40° C. / Percentage Remaining after 3 months at, 50° C. / Percentage Remaining after 3 months at, Ambient: 131400 min; for assay after 12 months: 525600 min; for percent of original concentration retained in syrup: one month, d,l-glaucine phosphate 0.6 percent, others 0.2 percent, 43800 min. On the procedure:
Stability of d,l-glaucine phosphate was examined in the syrup vehicle of Example 4.
Syrups containing codeine phosphate, 0.2 percent contained 97.5, 104.5 or 100 percent, respectively, after one month at ambient temperature, 40° C. or 55° C. […] After three months, the percentage amount of antitussive agent remaining was as shown below.

The test system of data set [2] is guinea pigs. Put plainly: Antitussive test, citric acid aerosol-induced cough, oral dosing. The conditions noted are these: for ED50: Cavia porcellus, po, 1 h; for 95 percent confidence limits of the ED50: antitussive. It counts as in vivo. On the procedure:
Separate groups of guinea pigs were orally administered various doses of a test compound, or distilled water for a control group. One hour after oral dosing, the guinea pigs were exposed to a 5 percent aerosol of citric acid for a 10 minute test period. The number of cough responses produced during the last five minutes of exposure to the citric acid aerosol was recorded and the dosage effect to suppress coughing in 50 percent of the guinea pigs (ED50) was calculated. An antitussive effect was recorded for a guinea pig when its total number of coughs during the 5 minute test period were at least two standard deviation units below the mean number of coughs per guinea pig in the control group. […];

For data set [3], the system named is guinea pigs. Put plainly: Antitussive test, citric acid aerosol-induced cough, intraperitoneal injection. Type of data set: in vivo. To be noted: Cavia porcellus, ip.
A short description of data set [4]: Solubility in cough syrup vehicle. It counts as physicochemical. The conditions noted are these: cough syrup vehicle of Example 4. On the procedure:
A cough syrup vehicle formulation was prepared containing the following pharmaceutically-acceptable excipients:
Water g.s. to 4 liters total

The nature of data set [5]: Stability of syrup under continuous light in amber and flint glass bottles. Type of data set: physicochemical. The conditions noted are these: one month, ambient temperature, continuous light about 2000 Foot-candles, 43800 min. As for the experimental part: In a procedure similar to that of Example 5, syrup formulations were prepared, placed in amber glass bottles and transparent (flint) glass bottles, and held under conditions of ambient temperature with continuous exposure to light. (About 2000 Foot-candles of combined fluorescent and incandescent light, for 24 hours/day.)

For the next data set, the system named is monkeys. Put plainly: Abuse potential, self-administration in codeine-habituated monkeys (Deneau et al.). Type of data set: in vivo. The conditions noted are these: codeine 100 micrograms/kilogram per injection; d,l-glaucine phosphate substituted at 50, 100, 200 and 400 micrograms per kilogram injection. The text has this:
The abuse potential of d,l-glaucine phosphate was studied in two monkeys in a procedure similar to that described by Deneau, et al., Psychopharmacologia 16(1):30-48, 1969.
In this procedure, the test monkeys are restrained and a catheter inserted into the external jugular vein for injection of test substances in response to pressing a bar lever by the monkey. The test monkeys are first habituated to self-administer codeine at a rate of 100 micrograms/kilogram per injection. The self-administration rate of the two monkeys so trained and habituated was about 100 to 150 lever pushes per two hour session at the 100 microgram codeine level. […]

Data set [6] concerns mice. Type of data set: in vivo. The conditions noted are these: naloxone 100 mg/kg intraperitoneal after last dose. As for the experimental part: Physical dependency liability was evaluated in mice by the procedure of Saelens, et al., Arch. Int. Pharmacodynam, 190:213-218, 1971. In this procedure, mice are administered increasing doses of a test compound at intervals on two consecutive days. The last dosage on the second day is followed by intraperitoneal injection of the morphine antagonist, naloxone, at a dosage of 100 mg/kg, and the mice are observed for characteristic jumping behaviour indicative of opiate withdrawals or morphine antagonism.

A further data set can be described thus: Acute lethality in mice. To be noted: mouse, in vivo, oral, mortality within 72 hours.
Data set [7] can be described thus: Therapeutic ratio LD50/ED50. To be noted: mouse LD50, guinea pig ED50. Type of data set: in vivo.
Data set [8] has as its system mice. Kind of data set: Analgesic activity, phenyl-p-quinone mouse writhing test (printed "writing test"). It counts as in vivo. The conditions noted are these: 0.5 h, oral, 30 minutes prior to phenyl-p-quinone challenge. On the procedure: Text compounds were evaluated for analgesic activity in the phenyl-p-quinone mouse writing test of Hendershot & Forsaith, J. Pharmacol. Exptl. Therap. 125(3) 237 (1959). The test compounds were administered orally 30 minutes prior to the phenyl-p-quinone challenge. In these operations, the oral ED50 's for d-glaucine. […]
(Writhing tests count abdominal constrictions after an irritant is injected.)

Data set [9] can be described thus: Plasma concentrations of l- or d-glaucine after oral administration. It counts as in vivo. The conditions noted are these: guinea pigs. On the procedure:
In other operations, l- and d-glaucine phosphate (2:3) were orally administered to separate guinea pigs and plasma concentrations of l- or d-glaucine were measured at intervals after dosing.

Where [10] appears, read: listed as d,1-Glaucine . HBr, hydrobromide.

Experimental for Acute lethality in mice: In other operations, various dosages of d,l-glaucine phosphate (2:3) were administered to groups mice by the oral route or by intraperitoneal injection, and the dosage which is lethal to 50 percent of the mice (LD50) was calculated from the mortality observations within 72 hours after administration.

Turning to `COc1cc2c(cc1OC)-c1c(OC)c(OC)cc3c1C(C2)N(C)CC3` (racemic) [d,l-glaucine hydrobromide], in [1] (40° C., listed as d,1-Glaucine . HBr, hydrobromide), the “Percentage Remaining after 3 months at, 40° C.” value (shortened to “Percentage Remaining … 40° C.”) amounted to 93.3 Percentage. Also, in data set [1] (setting [10]), the “Percentage Remaining after 3 months at, 50° C.” value (“Percentage Remaining … 50° C.” for short) stood at 91.4 Percentage and the “Percentage Remaining after 3 months at, Ambient” value (“Percentage Remaining … Ambient” below) came to 100.8 Percentage. In addition, in data set [1] (55° C., hydrobromide), the “assay after 12 months” value turned out to be 87.3% and the “percent of original concentration retained in syrup” value (“percent … in syrup” below) amounted to 89.5%. For the same molecule, the “percent … in syrup” value in data set [1] (40° C., hydrobromide) is listed as 96%. Further, the “percent … in syrup” value in [1] (ambient temperature, hydrobromide) was found to be 99%.

The term ED50 denotes the dose at which the effect has come halfway, by size or by number of responders. What is called solubility is the dissolved amount per volume that the medium holds. The term LD50 denotes the dose at which mortality reaches 50%. Regarding `COc1cc2c(cc1OC)-c1c(OC)c(OC)cc3c1C(C2)N(C)CC3` (racemic) [d,l-glaucine phosphate, d,l-Glaucine Phosphate], the ED50 in the data set on guinea pigs [2] (restated in the description, read-out: oral ED50, antitussive) amounted to 17.8 mg/kg; in the data set with guinea pigs [3], 17.3 mg/kg; with mice [8], 23 mg/kg. The “95 percent confidence limits of the ED50” value in the data set on guinea pigs [2] was 6.0-53.1 milligrams per kilogram. The molecule further yielded a solubility in data set [4] of 10000 µg/mL. Also, the “solubility in cough syrup vehicle per 5 milliliter dosage unit” value in data set [4] is “about 50 milligrams per 5 milliliter dosage unit”. Further, the “Percentage Remaining … 40° C.” value in [1] (40° C.) was 101.1 Percentage. Besides, the “Percentage Remaining … 50° C.” value in data set [1] was found to be 98.7 Percentage. Further, the “Percentage Remaining … Ambient” value in [1] was found to be 101.6 Percentage. Moreover, the “assay after 12 months” value in data set [1] (55° C., listed as phosphate salt) is recorded as 101.8%. For the same molecule, the figures for the “percent … in syrup” value in data set [1] (40° C.), in data set [1] (55° C.) and in [1] (ambient temperature) were 100.0%, 98.4% and 101.3%, respectively. The “assay of syrup in amber glass bottles” value in [5] (amber glass) is reported as 97.7%. In addition, in data set [5] (flint glass), the “assay of syrup in transparent (flint) glass bottles” value is 90%. In addition, the “monkey response rate (self-administration)” value in the data set with monkeys is reported as 10-20 responses/two hour session. For the same molecule, in the data set with mice [6], the “mice jumping after naloxone treatment” value is listed as “no jumping behaviour in any of the eight mice tested”. Moreover, the LD50 at 72 h in “Acute lethality in mice” is at least 681 mg/kg. Moreover, the “therapeutic ratio (LD50/ED50)” value amounted to 10 in data set [7] (intraperitoneal) and 38 in [7] (oral antitussive activity).

Turning to `COc1ccc2c3c1O[C@H]1[C@@H](O)C=C[C@H]4[C@@H](C2)N(C)CC[C@@]341` [codeine phosphate], the “95 percent confidence limits of the ED50” value in the data set on guinea pigs [2] is given as 52.3-232.6 milligrams per kilogram. In data set [1] (40° C.), the “Percentage Remaining … 40° C.” value is 101.1 Percentage and the “percent … in syrup” value is 104.5%. In data set [1], the “Percentage Remaining … 50° C.” value worked out at 88.4 Percentage and the “Percentage Remaining … Ambient” value was 101.3 Percentage. Also, in data set [1] (55° C.), the “percent … in syrup” value was determined as 100%. The “percent … in syrup” value in [1] (ambient temperature) is 97.5%. Moreover, in the data set on mice [6], the “mice jumping after naloxone treatment” value is on record as 2 of 6 and the “total jumps after naloxone treatment” value is 23 jumps total.

Consider `COc1ccc2c3c1O[C@H]1[C@@H](O)C=C[C@H]4[C@@H](C2)N(C)CC[C@@]341` [codeine, reference compound], for which the “monkey response rate (self-administration)” value in the data set with monkeys is given as 100-150 responses/two hour session.

`COc1cc2c(cc1OC)-c1c(OC)c(OC)cc3c1[C@H](C2)N(C)CC3` [d-glaucine phosphate, reference compound]: in the data set on guinea pigs [2] (one hour before 5 percent citric acid aerosol, 60 min), the “ED50, dosage effect to suppress coughing in 50 percent of the guinea pigs” value turned out to be 170.1 milligrams per kilogram.

Regarding `COc1cc2c(cc1OC)-c1c(OC)c(OC)cc3c1[C@@H](C2)N(C)CC3` [l-glaucine phosphate, l-glaucine phosphate (2:3)], the ED50 in the data set on guinea pigs [2] (one hour before 5 percent citric acid aerosol, read-out: ED50, dosage effect to suppress coughing in 50 percent of the guinea pigs) turned out to be 10.9 mg/kg. In the data set on guinea pigs [2], the “95 percent confidence limits of the ED50” value is on record as 0.4-33.8 milligrams per kilogram. Besides, the “time within which high plasma levels of glaucine were produced” value in data set [9] was at most 15 min.
